The supplement of paper PMC11451515

System: SEM cells
Experiment: cell viability relative to DMSO control; higher = less cytotoxic
Conditions: 48 h
Outline: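 Viability is a per-plate percentage relative to DMSO wells, with cell-free wells as background. CellTiter-Glo One luminescence was read after 48 h at 37°C on 1536-well plates (5 μl) of NOMO1 or SEM (500 cells/well) or P12-Ichikawa (1000 cells/well) leukemia cells. The cells had been adapted for at least four passages in each medium and pin-dosed with library compounds in DMSO from 47 μM to 0.79 nM in 11 threefold steps.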

[1] = HPLM + 10% dialyzed FBS, 0.000781 µM
[2] = HPLM + 10% dialyzed FBS, 0.00234 µM
[3] = HPLM + 10% dialyzed FBS, 0.00702 µM
[4] = HPLM + 10% dialyzed FBS, 0.0211 µM
[5] = HPLM + 10% dialyzed FBS, 0.0632 µM
[6] = HPLM + 10% dialyzed FBS, 0.19 µM
[7] = HPLM + 10% dialyzed FBS, 0.569 µM
[8] = HPLM + 10% dialyzed FBS, 1.71 µM
[9] = HPLM + 10% dialyzed FBS, 5.12 µM
[10] = HPLM + 10% dialyzed FBS, 15.4 µM
[11] = HPLM + 10% dialyzed FBS, 46.1 µM
[12] = RPMI 5 mM glucose + 10% FBS, 0.000781 µM
[13] = RPMI 5 mM glucose + 10% FBS, 0.00234 µM
[14] = RPMI 5 mM glucose + 10% FBS, 0.00702 µM
[15] = RPMI 5 mM glucose + 10% FBS, 0.0211 µM
[16] = RPMI 5 mM glucose + 10% FBS, 0.0632 µM
[17] = RPMI 5 mM glucose + 10% FBS, 0.19 µM
[18] = RPMI 5 mM glucose + 10% FBS, 0.569 µM
[19] = RPMI 5 mM glucose + 10% FBS, 1.71 µM
[20] = RPMI 5 mM glucose + 10% FBS, 5.12 µM
[21] = RPMI 5 mM glucose + 10% FBS, 15.4 µM
[22] = RPMI 5 mM glucose + 10% FBS, 46.1 µM
[23] = RPMI 5 mM glucose + 10% dialyzed FBS, 0.000781 µM
[24] = RPMI 5 mM glucose + 10% dialyzed FBS, 0.00234 µM
[25] = RPMI 5 mM glucose + 10% dialyzed FBS, 0.00702 µM
[26] = RPMI 5 mM glucose + 10% dialyzed FBS, 0.0211 µM
[27] = RPMI 5 mM glucose + 10% dialyzed FBS, 0.0632 µM
[28] = RPMI 5 mM glucose + 10% dialyzed FBS, 0.19 µM
[29] = RPMI 5 mM glucose + 10% dialyzed FBS, 0.569 µM
[30] = RPMI 5 mM glucose + 10% dialyzed FBS, 1.71 µM
[31] = RPMI 5 mM glucose + 10% dialyzed FBS, 5.12 µM
[32] = RPMI 5 mM glucose + 10% dialyzed FBS, 15.4 µM
[33] = RPMI 5 mM glucose + 10% dialyzed FBS, 46.1 µM

| Structure (SMILES) | cell viability [1] [%] | cell viability [2] [%] | cell viability [3] [%] | cell viability [4] [%] | cell viability [5] [%] | cell viability [6] [%] | cell viability [7] [%] | cell viability [8] [%] | cell viability [9] [%] | cell viability [10] [%] | cell viability [11] [%] | cell viability [12] [%] | cell viability [13] [%] | cell viability [14] [%] | cell viability [15] [%] | cell viability [16] [%] | cell viability [17] [%] | cell viability [18] [%] | cell viability [19] [%] | cell viability [20] [%] | cell viability [21] [%] | cell viability [22] [%] | cell viability [23] [%] | cell viability [24] [%] | cell viability [25] [%] | cell viability [26] [%] | cell viability [27] [%] | cell viability [28] [%] | cell viability [29] [%] | cell viability [30] [%] | cell viability [31] [%] | cell viability [32] [%] | cell viability [33] [%] |
| --- | --- | --- | --- | --- | --- | --- | --- | --- | --- | --- | --- | --- | --- | --- | --- | --- | --- | --- | --- | --- | --- | --- | --- | --- | --- | --- | --- | --- | --- | --- | --- | --- | --- |
| C=CCc1cc(OC)c(O)c(C(=O)NCCO)c1 | 110 | 101 | 101 | 103 | 116 | 98.7 | 112 | 92 | 98.6 | 69.3 | 64.3 | 97.4 | 108 | 108 | 110 | 102 | 112 | 98.1 | 88 | 99.2 | 77.1 | 68.6 | 110 | 83.8 | 99.1 | 102 | 105 | 113 | 105 | 103 | 96.6 | 78.4 | 66.8 |
| NCCCCCC(=O)O | 87.3 | 17 | 101 | 42.8 | 108 | 119 | 111 | 119 | 116 | 107 | 115 | 91.7 | 115 | 104 | 36.5 | 103 | 102 | 111 | 104 | 96.4 | 98 | 97.4 | 35.6 | 9.07 | 101 | 39.5 | 100 | 99.9 | 101 | 100 | 94.3 | 98 | 103 |
| NCCCC(O)(P(=O)(O)O)P(=O)(O)O.O.O.O.[Na+] | 141 | 106 | 118 | 120 | 122 | 118 | 125 | 110 | 71 | 56.6 | 15.4 | 124 | 125 | 109 | 130 | 112 | 122 | 99.3 | 101 | 22.5 | 16.6 | 6.56 | 125 | 111 | 133 | 118 | 122 | 113 | 110 | 116 | 37.5 | 27.9 | 7.61 |
| CC(=O)Oc1cc2c(s1)CCN(C(C(=O)C1CC1)c1ccccc1F)C2.Cl (stereo not drawn) | 84.3 | 102 | 103 | 113 | 115 | 112 | 110 | 122 | 120 | 101 | 68.5 | 71.3 | 96.9 | 88.7 | 96.7 | 90.8 | 101 | 94.2 | 100 | 101 | 82.1 | 53.3 | 76.1 | 106 | 103 | 111 | 107 | 114 | 110 | 117 | 115 | 78.6 | 54.4 |
| CN(C)/[N+]([O-])=N/Oc1cc(ON[N+](=O)N2CCN(C(=O)c3cc(Cc4n[nH]c(=O)c5ccccc45)ccc3F)CC2)c([N+](=O)[O-])cc1[N+](=O)[O-] | 94 | 97.2 | 103 | 97.7 | 100 | 58.3 | 101 | 116 | 109 | 110 | 105 | 99 | 101 | 93.1 | 93.5 | 100 | 55.9 | 98.2 | 109 | 111 | 113 | 103 | 89.9 | 79.2 | 112 | 103 | 109 | 40.1 | 137 | 122 | 106 | 100 | 91.8 |
| COc1ccc2c(OCc3nnc4ccc(-c5ccccc5)nn34)ccnc2c1 | 106 | 101 | 101 | 107 | 120 | 92.9 | 107 | 102 | 97.4 | 75.9 | 15.6 | 68.7 | 63.1 | 71.5 | 82.1 | 84 | 78.6 | 105 | 78.2 | 60.8 | 25.6 | 1.49 | 94 | 96.8 | 90.5 | 111 | 115 | 102 | 95.3 | 91.1 | 81 | 63.1 | 3.65 |
| CC(C)(C)Cn1c(N)nc2ccc(-c3[nH]c(C(C)(C)C)nc3-c3ccc(F)cc3)nc21 | 97.1 | 94.9 | 84.7 | 87.8 | 91.5 | 82.2 | 85.2 | 79.1 | 84.5 | 77.6 | 73.5 | 123 | 111 | 108 | 157 | 146 | 78.1 | 54.1 | 88.5 | 91.9 | 15.4 | 59.3 | 102 | 98.5 | 79.3 | 90.9 | 106 | 87.9 | 90 | 87 | 85.3 | 13.4 | 98.2 |
| OC1=CC2=C(C(=O)\C=C(/O2)C3=CC=CC=C3)C(=C1O)O | 105 | 116 | 106 | 103 | 111 | 109 | 104 | 93.3 | 77.5 | 25.6 | 23.8 | – | – | – | – | – | – | – | – | – | – | – | 108 | 94.4 | 102 | 94.5 | 104 | 99.5 | 106 | 102 | 69.5 | 16.7 | 14.6 |
